From patent publication US12274740B2, “Microbiome protection from oral antibiotics” (Theriva Biologics, Inc., priority 2016, dated 2025)
Several values for one entry are separate records, joined by “and”; a condition that tells them apart may be missing. Equal entries are not always repeated.

Experiments:
in vivo = conditions: Yorkshire, pig
[1] = Two arm PK study in dogs: amoxicillin levels in dog serum with or without Formulation 2 (TABLE 17); format: in vivo, beagle dogs; conditions: for Amoxicillin levels in dog serum, 0.00 hr: pre-dose
Procedure: Formulation 2 (TABLE 17) was chosen for evaluation in dogs. A two arm pharmacokinetics (PK) study was performed in three non-naïve male beagle dogs (age 2 years, approximately 12 kg). Animals were fasted overnight prior to the day of dosing in each arm. In Arm 1, the dogs were administered one dose of an amoxicillin suspension (amoxicillin powder, Sandoz, Lot FW1707, reconstituted in apple juice to 400 mg/5 ml) via oral gavage at 80 mg/kg. Animals were returned to their cages post-dose and fed 1.5 hrs after amoxicillin dosing. In Arm 2, dogs were administered an amoxicillin suspension (80 mg/kg, prepared as in Arm 1) via oral gavage. Immediately after the oral amoxicillin was dosed, the animals received one size 4 capsule of Formulation 2 (TABLE 17) containing 10 mg of SYN-004. The capsules were not chewed and were swallowed whole. Capsules were dosed by hand by placing the capsule in the back of the dog's mouth and followed by 6 mL of Mott's 100% apple juice in a syringe. Animals were returned to their cages post-dose and fed 1.5 hrs after amoxicillin dosing. There was a seven day washout period between the two arms. In both arms of the study, blood (approximately 2 mL) was collected for serum PK analysis at pre-dose, and 30 minutes, 1, 2, 3, 4, 6, 8, and 10 hrs post-dose. Serum was collected and immediately frozen at −80° C. Feed was ad-libitum throughout both arms, except during dosing, which was done fasted as described. […] Animals were returned to the colony following the last blood collection.
Serum was analyzed for amoxicillin levels using a validated liquid chromatography (LC) method with tandem mass spectrometry detection (LC/MS/MS). Briefly, the serum samples were extracted using the protein precipitation extraction method and analyzed using reverse phase LC. Amoxicillin and amoxicillin-d4 (internal standard) were detected using tandem MS. The study was performed using Applied Biosystems Triple Quad API 500 LC/MS/MS system with Turbo ion spray interfaces. The data were acquired and analyzed by Applied Biosystems “Analyst” software, version 1.5. The lower limit of quantitation (LLOQ) for amoxicillin was 101.723 ng/ml. The upper limit of quantitation (ULOQ) for amoxicillin was 20344.678 ng/ml. A calibration curve consisting of two control blanks, two zero standards and ten non-zero standards, prepared in naïve dog serum, covering a range of 101.723 to 20344.678 ng/ml, were run with each sample batch. Amoxicillin levels were similar for each animal in Arm 1 and Arm 2 of the study (TABLE 19). The amoxicillin serum levels in Arm 1 and Arm 2 for each dog were plotted separately and the area under the curves was calculated (FIG. 25). The area under the curve for each animal was similar in Arm 1 and Arm 2 of the study. […] Therefore, the strategy to reduce the potential for premature release, release in the small intestine prior to absorption of orally-delivered amoxicillin, by using FS 30 D-coated SYN-004 layered sucrose pellets incorporated inside FS 30 D-coated capsule, or the “nested” strategy, was successful as indicated by the similar amoxicillin blood levels in each dog with and without SYN-004.

[2] = Piglet study of modified nested SYN-004 formulation with oral amoxicillin; format: in vivo, Yorkshire piglets; conditions: pig serum three hours after oral amoxicillin 40 mg/kg
Procedure: Formulation 2 (TABLE 17) capsules consisting of FS 30 D-coated SYN-004 pellets within FS 30 D-coated capsules were prepared for testing in normal piglets. For this formulation, size 9H gelatin capsules (small capsules, 2.7 mm diameter, 5 mm length) were filled with 3 pellets of FS 30 D-coated SYN-004 sucrose cores, then coated with FS 30 D. The coated 9H capsule containing the SYN-004 pellets was then inserted into a size 5 gelatin capsule for ease of delivery to the pigs (FIG. 26). Each FS 30 D-coated pellet of SYN-004 contained […] of SYN-004. Therefore, the total SYN-004 dose was 0.5 mg/size 5 gelatin capsule. The anticipated advantage of this nested strategy using the small 9H capsules is that the gelatin capsule will dissolve in the stomach, releasing the small FS 30 D-coated 9H capsule that is protected from stomach acid and is small enough to pass through the gastric pylorus without the need for stomach emptying. […] Amoxicillin levels were similar in animals treated with amoxicillin alone and with amoxicillin plus the SYN-004 (FIG. 27; TABLE 20).

[3] = Arm 1: amoxicillin 80 mg/kg oral gavage alone
[4] = Arm 2: amoxicillin 80 mg/kg + one capsule Formulation 2 (TABLE 17), 10 mg SYN-004

CC1(C)S[C@@H]2[C@H](NC(=O)[C@H](N)c3ccc(O)cc3)C(=O)N2[C@H]1C(=O)O [Amoxicillin]
concentration at 3 h (in vivo; Amoxicillin (ng/ml) 3 hours): 1160 to 2320 ng/mL | concentration at 6 h (in vivo; Amoxicillin (ng/ml) 6 hours): 667 to 1160 ng/mL | Amoxicillin levels in dog serum, 0.50 hr [1, 3]: 17908.396 ng/mL and 16720.439 ng/mL | Amoxicillin levels in dog serum, 0.00 hr [1, 3]: BLQ (BLQ: Below lower limit of quantitation) | Amoxicillin levels in dog serum, 2.00 hr [1, 4]: 30317.167 ng/mL and 35935.251 ng/mL | Amoxicillin levels in dog serum, 0.00 hr [1, 4]: BLQ (BLQ: Below lower limit of quantitation) | concentration at 10 h ([1]; male, beagle, dog, serum, oral, 80 mg/kg, Arm 1: amoxicillin 80 mg/kg oral gavage alone): 183 ng/mL | concentration at 0.5 h ([1]; male, beagle, dog, serum, oral, 80 mg/kg, Arm 1: amoxicillin 80 mg/kg oral gavage alone, read-out: Amoxicillin levels in dog serum, 0.50 hr): 12600 ng/mL | concentration at 2 h ([1]; male, beagle, dog, serum, oral, Arm 2: amoxicillin 80 mg/kg + one capsule Formulation 2 (TABLE 17), 10 mg SYN-004): 18700 ng/mL | area under the curve, Arm 1 versus Arm 2 ([1]; serum amoxicillin, each animal): similar | concentration at 3 h ([2]; Yorkshire, pig, serum, oral, 40 mg/kg, Amoxicillin Serum Levels (ng/ml) Mean, alone or with SYN-004 0.5 mg, 5 pigs, heading: Amoxicillin Serum Levels Mean): 182 ng/mL | Amoxicillin Serum Levels (ng/ml), individual animal ([2]; alone or with one capsule SYN-004 modified nested formulation (0.5 mg)): 29647 ng/mL and 6498 ng/mL and 25130 ng/mL and 14936 ng/mL and 14757 ng/mL
